The results in this text go back to ChEMBL document CHEMBL3044595, “Bioactivity of latifolin and its derivatives against termites and fungi” (2009).

Calls of active or inactive are those of the source. The rule behind the calls is not given here.

For assay [1], the system named is Trametes versicolor. Nature of the assay: Antifungal activity against Trametes versicolor NBRC 30340 assessed as diameter of mycelial growth at 5 ug/cm'2 at 25.5 degC after 5 days. In kind it is functional.
Assay [2] deals with Fomitopsis palustris. Kind of assay: Antifungal activity against Fomitopsis palustris NBRC 30339 assessed as mycelial growth inhibition at 5 ug/cm2 at 25.5 degC after 14 days. In kind it is functional.
For assay [3], the system named is Reticulitermes speratus. Kind of assay: Antifeedant activity against Reticulitermes speratus in compound pretreated paper disks assessed as mass loss of the paper disk at 3% measured after 14 days (reference value: 7.67 mg). The assay is classed as functional.
Assay [4] relates to Reticulitermes speratus. Nature of the assay: Antitermite activity against Reticulitermes speratus in compound pretreated paper disks assessed as mortality at 3% measured after 14 days. In kind it is functional.
The subject of assay [5] is Reticulitermes speratus. Kind of assay: Ratio of antitermite activity for compound to antitermite activity for latifolin against Reticulitermes speratus at 3% measured after 14 days. The assay is classed as functional.
In assay [6] the test system is Reticulitermes speratus. Kind of assay: Ratio of antifeedant activity for compound to antifeedant activity for latifolin against Reticulitermes speratus at 3% measured after 14 days. The assay is classed as functional.
Assay [7] has as its system Cladosporium cladosporioides. Nature of the assay: Antifungal activity against Cladosporium cladosporioides NBRC 6348 assessed as diameter of mycelial growth at 5 ug/cm'2 at 25.5 degC after 20 days. The assay is classed as functional.
Assay [8] has as its system Trametes versicolor. Nature of the assay: Antifungal activity against Trametes versicolor NBRC 30340 assessed as mycelial growth inhibition at 5 ug/cm'2 at 25.5 degC after 5 days. In kind it is functional.
Assay [9] relates to Fomitopsis palustris. Kind of assay: Antifungal activity against Fomitopsis palustris NBRC 30339 assessed as diameter of mycelial growth at 5 ug/cm'2 at 25.5 degC after 14 days. The assay is classed as functional.
The subject of the next assay is Rhizopus arrhizus. Nature of the assay: Antifungal activity against Rhizopus oryzae NBRC 31005 assessed as mycelial growth inhibition at 5 ug/cm'2 at 25.5 degC after 36 hr. In kind it is functional, organism-based.

Take `C=C[C@H](c1ccccc1OC)c1cc(O)c(OC)cc1OC` [2'-O-METHYLLATIFOLIN]: the Activity with Trametes versicolor [1] is 60 mm; in the assay on Reticulitermes speratus [3], 0.82 mg; in [7], 30 mm; in the assay on Fomitopsis palustris [9], 42.5 mm. Also, the results for the “inhibition (INH)” value in the assay with Fomitopsis palustris [2] and in the assay with Trametes versicolor [8] were 18.3% and 16.5%, respectively. In addition, the mortality in the assay on Reticulitermes speratus [4] is given as 46.7%. In addition, the Ratio with Reticulitermes speratus [5] is 1.75; in the assay on Reticulitermes speratus [6], 1.98. In addition, the inhibition entry in the assay on Rhizopus arrhizus was “inactive”.

`C=C[C@H](c1ccccc1O)c1cc(OC)c(OC)cc1OC` [5-O-METHYLLATIFOLIN]: the Activity in the assay on Trametes versicolor [1] was determined as 62.3 mm; with Reticulitermes speratus [3] it was 1.29 mg; in assay [7], 29.2 mm; in the assay on Fomitopsis palustris [9] it was 52.3 mm. The entries for the “inhibition (INH)” value in the assay with Fomitopsis palustris [2] and in the assay on Trametes versicolor [8] were -0.5% and 13.2%, respectively. The mortality in the assay with Reticulitermes speratus [4] stood at 30%. In addition, the Ratio came out at 1.13 in the assay on Reticulitermes speratus [5] and 3.25 in the assay on Reticulitermes speratus [6]. In the assay with Rhizopus arrhizus, the inhibition result was “inactive”.

In the case of `C=C[C@H](c1ccccc1O)c1cc(O)c(OC)cc1OC` [LATIFOLIN], the Activity with Trametes versicolor [1] amounted to 15 mm; in the assay on Reticulitermes speratus [3], 0.39 mg; in assay [7] it was 26.2 mm; with Fomitopsis palustris [9], 32.5 mm. In addition, the “inhibition (INH)” value is 37.5% with Fomitopsis palustris [2] and 79.1% with Trametes versicolor [8]. Moreover, the mortality with Reticulitermes speratus [4] worked out at 26.7%. Also, the inhibition entry in the assay on Rhizopus arrhizus was “inactive”.

For `C=C[C@@H](c1cc(OC(C)=O)c(OC)cc1OC)c1ccccc1OC(C)=O` [LATIFOLIN DIACETATE], the Activity with Trametes versicolor [1] came to 56.2 mm; in the assay with Reticulitermes speratus [3] it was 1.13 mg; in assay [7] it was 28.7 mm; in the assay with Fomitopsis palustris [9], 51.3 mm. Besides, the “inhibition (INH)” value came out at 1.4% in the assay with Fomitopsis palustris [2] and 21.8% in the assay with Trametes versicolor [8]. Also, the mortality with Reticulitermes speratus [4] worked out at 53.3%. The values for the Ratio with Reticulitermes speratus [5] and in the assay on Reticulitermes speratus [6] were 2 and 2.89, respectively. In the assay with Rhizopus arrhizus, the inhibition result is “inactive”.

As to `C=C[C@H](c1ccccc1OC)c1cc(OC)c(OC)cc1OC` [LATIFOLIN DIMETHYL ETHER], the Activity is reported as 60.8 mm with Trametes versicolor [1], 1.27 mg in the assay on Reticulitermes speratus [3], 29.3 mm in assay [7] and 57 mm with Fomitopsis palustris [9]. Moreover, the “inhibition (INH)” value is reported as -9.6% in the assay with Fomitopsis palustris [2] and 15.3% in the assay with Trametes versicolor [8]. In the assay with Reticulitermes speratus [4], the mortality is reported as 56.7%. Besides, the Ratio with Reticulitermes speratus [5] came out at 2.13; in the assay with Reticulitermes speratus [6] it was 3.42. Further, the inhibition result in the assay on Rhizopus arrhizus was “inactive”.
